Biological target: 5'-methylthioadenosine/S-adenosylhomocysteine nucleosidase (Escherichia coli O157:H7, UniProt P0AF14)
Assay: Inhibition of Escherichia coli MTAN

Chain of 5'-methylthioadenosine/S-adenosylhomocysteine nucleosidase (P0AF14 whole entry): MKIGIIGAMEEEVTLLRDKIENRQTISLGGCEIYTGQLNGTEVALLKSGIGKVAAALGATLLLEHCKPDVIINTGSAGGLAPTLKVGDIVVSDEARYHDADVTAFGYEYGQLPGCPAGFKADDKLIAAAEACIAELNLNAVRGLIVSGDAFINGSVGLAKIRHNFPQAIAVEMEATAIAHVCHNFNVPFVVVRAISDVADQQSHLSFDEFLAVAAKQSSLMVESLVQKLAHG

## Nc1ncnc2c([C@@H]3N[C@H](CSCCC(N)C(=O)O)[C@@H](O)[C@H]3O)c[nH]c12 (stereo partly specified)
  Ki: 1.7 nM

From ChEMBL document CHEMBL1147703, “Synthesis of a potent 5'-methylthioadenosine/S-adenosylhomocysteine (MTAN) inhibitor” (Bioorg Med Chem Lett, 2006)
